We go through 16 compounds from PubChem BioAssay AID328 (DTP/NCI, 2004).

“And” between values parts separate entries of the source, which are not always exact repeats. Equal entries are not always repeated. Inconclusive results and toxic doses are left out.

The test system of the experiment is BDF1 mice, P388 leukemia ip, median survival T/C. Nature of the experiment: NCI In Vivo Anticancer Drug Screen. Data for tumor model P388 Leukemia (intraperitoneal) in B6D2F1 (BDF1) mice. The following applies: endpoint: median survival time, higher = longer survival. The method, boiled down: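 In tumour-bearing mice, survival after compound treatment is set against the vehicle group and given as a quotient.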

The mark [1] stands for this setting: dose: 100.0 mg/kg/injection, schedule: Q04DX003 (ip), vehicle: saline with Tween-80.
Setting [2] is: dose: 50.0 mg/kg/injection, schedule: Q01DX009 (ip), vehicle: saline with Tween-80.
Setting [3] is: dose: 100.0 mg/kg/injection, schedule: Q01DX009 (ip), vehicle: saline with Tween-80.
The mark [4] stands for this setting: dose: 200.0 mg/kg/injection, schedule: Q01DX009 (ip), vehicle: saline with Tween-80.
[5] abbreviates: dose: 200.0 mg/kg/injection, schedule: Q04DX003 (ip), vehicle: saline with Tween-80.
Setting [6] is: dose: 400.0 mg/kg/injection, schedule: Q01DX009 (ip), vehicle: saline with Tween-80.
The mark [7] stands for this setting: dose: 400.0 mg/kg/injection, schedule: Q04DX003 (ip), vehicle: saline with Tween-80.
[8] abbreviates: dose: 100.0 mg/kg/injection, schedule: Q01DX009 (ip), vehicle: Klucel (hydroxypropylcellulose) (HPC).
The mark [9] stands for this setting: dose: 100.0 mg/kg/injection, schedule: Q04DX003 (ip), vehicle: Klucel (hydroxypropylcellulose) (HPC).
The mark [10] stands for this setting: dose: 200.0 mg/kg/injection, schedule: Q04DX003 (ip), vehicle: Klucel (hydroxypropylcellulose) (HPC).
The mark [11] stands for this setting: dose: 400.0 mg/kg/injection, schedule: Q04DX003 (ip), vehicle: Klucel (hydroxypropylcellulose) (HPC).
Where [12] appears, read: dose: 100.0 mg/kg/injection, schedule: Q01DX009 (ip), vehicle: saline.
[13] abbreviates: dose: 200.0 mg/kg/injection, schedule: Q01DX009 (ip), vehicle: saline.
[14] abbreviates: dose: 50.0 mg/kg/injection, schedule: Q04DX003 (ip), vehicle: saline with Tween-80.
[15] abbreviates: dose: 50.0 mg/kg/injection, schedule: Q01DX009 (ip), vehicle: saline.

For `CCOC1CC(C)C(C=O)C(C#N)(C#N)C1(C#N)C#N` (configuration not stated), the T/C by setting is: (dose: 12.5 mg/kg/injection, schedule: Q01DX001 (ip), vehicle: saline with Tween-80) 100 % of control; (dose: 25.0 mg/kg/injection, schedule: Q01DX001 (ip), vehicle: saline with Tween-80) 109 % of control; (dose: 50.0 mg/kg/injection, schedule: Q01DX001 (ip), vehicle: saline with Tween-80) 106 % of control.

Take `c1cc2n(n1)CCN2`: the T/C by setting is: (dose: 50.0 mg/kg/injection, schedule: Q01DX009 (ip), vehicle: water) 105 % of control; (dose: 80.0 mg/kg/injection, schedule: Q01DX009 (ip), vehicle: saline) 90 % of control; (dose: 100.0 mg/kg/injection, schedule: Q01DX009 (ip), vehicle: water) 90 % of control; under setting [1], 120 % of control; (dose: 100.0 mg/kg/injection, schedule: Q04DX003 (ip), vehicle: water) 103 % of control; (dose: 120.0 mg/kg/injection, schedule: Q01DX009 (ip), vehicle: saline) 107 % of control. Moreover, the T/C by setting is: (dose: 180.0 mg/kg/injection, schedule: Q01DX009 (ip), vehicle: saline) 112 % of control; (dose: 200.0 mg/kg/injection, schedule: Q01DX009 (ip), vehicle: water) 90 % of control; (dose: 200.0 mg/kg/injection, schedule: Q04DX003 (ip), vehicle: water) 96 % of control; (dose: 400.0 mg/kg/injection, schedule: Q04DX003 (ip), vehicle: water) 121 % of control.

For the compound `COc1cc(Br)c(/C=C(\C)[N+](=O)[O-])cc1OC`, the T/C is 109 % of control (dose: 100.0 mg/kg/injection, schedule: Q01DX001 (ip), vehicle: saline with Tween-80) and 93 % of control (dose: 200.0 mg/kg/injection, schedule: Q01DX001 (ip), vehicle: saline with Tween-80).

For the compound `COC(=O)C(CSCSC)NC(=O)/C=C/c1ccccc1C` (configuration not stated), the T/C is 101 % of control under setting [2]; 98 % of control under setting [3]; 104 % of control under setting [1]; 101 % of control under setting [4]; 91 % of control under setting [5]; 114 % of control under setting [6]. Moreover, under setting [7], the T/C is 104 % of control.

Turning to `N#CC(=C1C=CC(=NO)C=C1)c1ccc(Cl)cc1`, the T/C is 114 % of control (dose: 25.0 mg/kg/injection, schedule: Q01DX009 (ip), vehicle: Klucel (hydroxypropylcellulose) (HPC)); 102 % of control (dose: 25.0 mg/kg/injection, schedule: Q04DX003 (ip), vehicle: Klucel (hydroxypropylcellulose) (HPC)); 114 % of control (dose: 50.0 mg/kg/injection, schedule: Q01DX009 (ip), vehicle: Klucel (hydroxypropylcellulose) (HPC)); 98 % of control (dose: 50.0 mg/kg/injection, schedule: Q04DX003 (ip), vehicle: Klucel (hydroxypropylcellulose) (HPC)); 117 % of control under setting [8]; 110 % of control under setting [9]. For the same compound, the T/C runs as follows: under setting [10], 122 % of control; under setting [11], 113 % of control.

On to `Brc1ccc(C[N+]23CN4CN(CN(C4)C2)C3)cc1`, for which the T/C is 115 % of control under setting [12]; 118 % of control (dose: 100.0 mg/kg/injection, schedule: Q04DX003 (ip), vehicle: saline); 107 % of control and 108 % of control (dose: 132.0 mg/kg/injection, schedule: Q01DX009 (ip), vehicle: saline with Tween-80); 90 % of control under setting [13]; 122 % of control (dose: 200.0 mg/kg/injection, schedule: Q04DX003 (ip), vehicle: saline).

With `Cc1ccc(NCCN2CCCCC2)c2c(=O)c3ccccc3sc12`, the T/C is, setting by setting: under setting [8], 115 % of control; under setting [9], 115 % of control; (dose: 200.0 mg/kg/injection, schedule: Q01DX009 (ip), vehicle: Klucel (hydroxypropylcellulose) (HPC)) 110 % of control; under setting [10], 115 % of control; (dose: 264.0 mg/kg/injection, schedule: Q01DX009 (ip), vehicle: Klucel (hydroxypropylcellulose) (HPC)) 150 % of control; (dose: 264.0 mg/kg/injection, schedule: Q04DX003 (ip), vehicle: Klucel (hydroxypropylcellulose) (HPC)) 118 % of control and 120 % of control. The T/C under setting [11] is 122 % of control.

As to `CCC(=O)Oc1ccc2c(c1)CC[C@@H]1[C@@H]2CC[C@]2(C)C[C@H](OC(=O)CC)C[C@@H]12`, the T/C under setting [3] is 100 % of control; the T/C under setting [1] is 95 % of control; the T/C under setting [4] was 118 % of control; the T/C under setting [5] was 100 % of control; the T/C under setting [6] was 118 % of control; the T/C under setting [7] is 90 % of control.

Turning to `CCc1ccccc1NC(=O)c1ccccc1Cl`, the T/C runs as follows: (dose: 100.0 mg/kg/injection, schedule: Q04DX003 (ip), vehicle: other) 109 % of control; (dose: 200.0 mg/kg/injection, schedule: Q04DX003 (ip), vehicle: other) 104 % of control; (dose: 400.0 mg/kg/injection, schedule: Q04DX003 (ip), vehicle: other) 90 % of control.

Regarding `CCS(=O)(=O)OCCCCOS(=O)(=O)CC`, under setting [3], the T/C is 108 % of control.

With `Cc1c2ccccc2c(CSC(=N)N)c2ccccc12`, the T/C was 154 % of control (dose: 9.38 mg/kg/injection, schedule: Q04DX003 (ip), vehicle: saline with Tween-80); 160 % of control (dose: 12.5 mg/kg/injection, schedule: Q04DX003 (ip), vehicle: saline); 180 % of control (dose: 25.0 mg/kg/injection, schedule: Q04DX003 (ip), vehicle: saline).

Turning to `CC1CNC2C(C)C3C(CC4C5CCC6CC(N)CCC6(C)C5CCC43C)OC2(O)C1` (configuration not stated), the T/C is 112 % of control (dose: 12.5 mg/kg/injection, schedule: Q04DX003 (ip), vehicle: saline with Tween-80); 100 % of control (dose: 25.0 mg/kg/injection, schedule: Q04DX003 (ip), vehicle: saline with Tween-80); 91 % of control under setting [14].

As for `COc1ccc(NCCOc2ccccc2Br)cc1`, the T/C (dose: 100.0 mg/kg/injection, schedule: Q01DX009 (ip), vehicle: other) is 109 % of control and the T/C (dose: 400.0 mg/kg/injection, schedule: Q01DX009 (ip), vehicle: other) is 118 % of control.

As to `C=C1C(=O)OC(C)(C)C1(C)C`, the T/C is, setting by setting: (dose: 12.5 mg/kg/injection, schedule: Q01DX009 (ip), vehicle: saline) 105 % of control; (dose: 25.0 mg/kg/injection, schedule: Q01DX009 (ip), vehicle: saline) 98 % of control; under setting [15], 86 % of control and 88 % of control.

With `CN1C(=O)N(C)C2(C=Cc3cc([N+](=O)[O-])ccc3O2)N(C)C1=O`, the T/C reads like this: under setting [15], 99 % of control; under setting [12], 101 % of control; under setting [13], 99 % of control.

For the compound `O=C(CN1CC1)NCCCCCCCCNC(=O)CN1CC1`, the T/C (dose: 12.5 mg/kg/injection, schedule: Q01DX009 (ip), vehicle: saline with Tween-80) is 200 % of control; the T/C (dose: 25.0 mg/kg/injection, schedule: Q01DX009 (ip), vehicle: saline with Tween-80) is 259 % of control; the T/C (dose: 33.0 mg/kg/injection, schedule: Q04DX003 (ip), vehicle: saline with Tween-80) was 190 % of control; the T/C under setting [2] was 86 % of control; the T/C under setting [14] was 209 % of control; the T/C (dose: 75.0 mg/kg/injection, schedule: Q04DX003 (ip), vehicle: saline with Tween-80) is 245 % of control.
